This is an account of results in patent US20260130885A1, “ANTIMICROBIAL COMPOSITIONS, PHARMACEUTICAL COMPOSITIONS AND USE THEREOF” (priority 2022, published 2026).

Values after ≈ are worked out from the molar mass of the structure shown. Like-named read-outs stand apart in the source and are kept apart here.

One assay has as its system MRSA USA300. The assay is described as follows: Antibacterial activity assay (MIC by broth microdilution, MBC by subculture). Format: cell-based, Staphylococcus aureus. Summed up: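 CLSI broth microdilution: mid-log cultures (OD600 0.5 to 0.6) diluted to 5×10^5 cfu/mL in CAMHB, exposed to increasing doses in triplicate 24 hours at 37° C. MIC is lowest concentration without visible growth. For USA300, MBC is the lowest dilution without viable bacteria on subculture.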
A general note: Dilution methods test growth across graded concentrations, often in twofold steps.

A further assay concerns MRSA ATCC33591. The assay is described as follows: Antibacterial activity assay (MIC, broth microdilution). The assay is classed as cell-based, Staphylococcus aureus. The settings on record: for MIC: Staphylococcus aureus.
For assay [1], the system named is biofilms of S. aureus NCTC8325. In words: Biofilm eradication assay. Format: cell-based, Staphylococcus aureus. The settings on record: 24 hours; FIG. 2. How it is done:
(§1) FIG. 2: The biofilms of S. aureus NCTC8325 (the upper left graph) and MRSA USA300 (the upper right graph) were treated with increasing concentrations of blank control (Mock), DHA, daptomycin (DAP), vancomycin (VAN), SC5005, and SC5005 in combination with DHA for 24 hours. The number of viable bacteria was then determined using a cfu assay. The data represent individual experiments and are shown as the mean±SD (n=3 per group). ns, nonsignificant, p>0.05; *p<0.05; **p<0.01; ***p<0.001. (The lower left graph) the biofilms of MRSA USA300 were treated with blank control (Mock) or SC5005 along with 80 mg/L DHA for 1, 3 or 10 minute(s). The viable bacteria in the biofilms harvested and enumerated using a cfu assay. The data represent independent experiments and are shown as mean±SD (n=3 per group). ns, nonsignificant, p>0.05; *p<0.05; **p<0.01; ***p<0.001 (The lower right graph) RAW264.7 cells were exposed to a blank control (Mock) or increasing concentrations of SC5005 and 80 mg/L DHA for […]. The viability of cells was determined by the MTT assay and expressed as a percentage relative to mock (DMSO and ethanol)-treated cells. The data shown are the mean±SD (n=3 per group).
(§2) The eradication activity of daptomycin, vancomycin, experimental acyl compounds and experimental acyl compounds along with fatty acids against biofilms of microorganisms was evaluated as described above. Briefly, bacteria were grown in tryptic soy broth (Becton Dickinson, USA) and biofilms were formed on the pegs of the lid of a 96-well dish immersed in bacterial cultures at 5×10^5 cfu/mL. […] After incubation at 37° C. for 24 hours, the peg-lids were washed and placed onto a new 96-well plate with fresh CAMHB in each well and sonicated for 5 minutes to disrupt the biofilm on the pegs, followed by a cfu assay to assess the number of viable bacteria in each well. To determine the minimum biofilm removal concentration, the 96-well plates were covered with new lids and incubated at 37° C. for 24 hours, and then the viable bacteria in each well were counted using the cfu assay.

Another assay has as its system biofilms of MRSA USA300. The assay is described as follows: Biofilm eradication assay. The assay is classed as cell-based, Staphylococcus aureus. The protocol:
as §1, §2

For assay [2], the system named is antibiotic-resistant Staphylococcus aureus. The assay is described as follows: MIC against all strains of Table 4. The assay is classed as cell-based. Particulars: agent alone, all the bacterial strains under the examination. How it is done:
The antimicrobial activity was based on MIC and MBC; MIC is the minimum inhibitory concentration and MBC is the minimum bactericidal concentration. The MIC of individual test agents against MRSA USA300 strains was determined using the broth microdilution method according to CLSI guidelines. Briefly, overnight bacterial cultures in LB medium were diluted 1:50 in fresh LB medium and incubated at 37° C. until reaching an OD600 of 0.5 to 0.6. Bacterial suspensions were diluted to a final concentration of 5×10^5 cfu/mL in fresh CAMHB and then exposed to each test agent at increasing doses in triplicate in 96-well plates for 24 hours at 37° C. The MIC of each agent was defined as the lowest concentration without visible bacterial growth. […] The lowest broth dilution that had no viable bacteria was considered the MBC.
Then, the combination effect was measured by calculating their corresponding fractional inhibitory concentration index (FICI) with the equation ΣFIC (FICi)=FICA+FICB=(CombA/MICA)+(CombB/MICB), where MICA and MICB are the MICs of drugs A and B alone, respectively, and CombA and CombB are the concentrations of drugs A and B in combination, respectively. […]
The antibacterial activity of the SC5005-DHA composition against a series of antibiotic-resistant Staphylococcus aureus was analyzed, and the results are shown in Table 4.

In the next assay the test system is MRSA ATCC43300. In words: Antibacterial activity assay (MIC, broth microdilution). Format: cell-based, Staphylococcus aureus. The settings on record: for MIC: Staphylococcus aureus.
For assay [3], the system named is MRSA USA300 persister cells. The assay is described as follows: Persister killing assay. Format: cell-based, Staphylococcus aureus. Particulars: SC5005 16×MIC, 4 mg/L; FIG. 1. The protocol:
(§3) The number of viable bacteria in broth after each exposure period was enumerated by a cfu assay and expressed as cfu/mL; the data shown are the mean±SD (standard deviation) of independent experiments. […] The number of viable bacteria in the broth after each exposure period was calculated by a cfu assay (cfu/mL); the data are shown as the mean±SD of three independent experiments (n=3 for each group). Since the standard deviation of each point is very small, the error line is not shown in each graph. The horizontal dashed line in the upper left graph and the upper right graph represents […] of the bacterial cells killed. In addition, the blank controls in FIG. 1 are shown as filled diamonds.
(§4) Bacteria were collected by centrifugation at 4000×g for 10 min at 4° C., washed with ice-cold PBS, and suspended in PBS with test agents. Controls received DMSO and ethanol vehicles at concentrations equal to those for drug-treated bacteria. At the designated times, the number of viable bacteria was assessed by serial dilution of a 100 μL aliquot bacterial suspension in PBS and then spread onto LB agar plates. After incubation at 37° C. for 18-24 hours, the number of colonies was counted and expressed as cfu/mL.

For assay [4], the system named is S. aureus NCTC8325 persister cells. The assay is described as follows: Persister killing assay. Format: cell-based, Staphylococcus aureus. Particulars: SC5005 16×MIC, 4 mg/L; FIG. 1. How it is done: as §3, §4
Assay [5] has as its system Staphylococcus aureus NCTC8325. The assay is described as follows: Time-kill kinetics (cfu assay). The settings on record: SC5005 4×MIC, 1 mg/L; FIG. 1. The assay is classed as cell-based. How it is done:
as §3
In this experiment, the inventor analyzed the time-kill kinetics of SC5005, DHA, and a combination thereof against Staphylococcus aureus NCTC8325 and MRSA USA300, and the results are shown in FIG. 1. It can be seen in FIG. 1 that SC5005 killed more than 99.9% of the bacteria within 24 hours. […] Besides, it is well known in the art that Staphylococcus aureus can enter a dormant state (i.e., become the so-called persister cells) and develop resistance to antibiotic treatment, thus leading to repeated bacterial infections.

In the case of `O=C(Nc1ccc(Cl)c(C(F)(F)F)c1)C(CCCl)C(=O)Nc1ccc(Cl)c(C(F)(F)F)c1` [SC5005], the MBC in the assay with MRSA USA300 (+8 mg/L DHA) was determined as 7.8 ng/mL; in the assay on MRSA USA300 (Staphylococcus aureus, MRSA / SC5005 / USA300, fatty acid 0 mg/L (SC5005 alone), read-out: MBC SC5005), 2000 ng/mL; in the assay with MRSA USA300 (Staphylococcus aureus, amide compound alone, read-out: MBC), 2000 ng/mL. The minimum inhibitory concentration (MIC) in the assay with MRSA USA300 (+8 mg/L DHA) was determined as 0.0038 ng/mL; in the assay on MRSA USA300 (+8 mg/L DHA, MRSA USA300 (Table 4)), 0.015 ng/mL; with MRSA USA300 (Staphylococcus aureus, MRSA / SC5005 / USA300, fatty acid 0 mg/L (SC5005 alone), read-out: MIC SC5005), 250 ng/mL; in the assay with MRSA USA300 (Staphylococcus aureus, amide compound alone, read-out: MIC) it was 250 ng/mL; with MRSA USA300 (agent alone, MRSA USA300 (Table 4)), 250 ng/mL; in the assay with MRSA ATCC33591 (+8 mg/L DHA) it was 0.061 ng/mL (≈ 0.000117 µM). In addition, the MIC in the assay with MRSA ATCC33591 (agent alone) was determined as 250 ng/mL (≈ 0.479 µM); in assay [2], 250 ng/mL; with MRSA ATCC43300 (+8 mg/L DHA), 0.24 ng/mL (≈ 0.00046 µM); with MRSA ATCC43300 (agent alone), 250 ng/mL (≈ 0.479 µM). Further, the combination effect entry in the assay on MRSA USA300 (MIC, +8 mg/L DHA, MRSA USA300 (Table 4)) is listed as “(Syn) (Synergy (Syn) was defined as an FICI≤0.5)”; in the assay on MRSA ATCC33591 (MIC, +8 mg/L DHA) it was “(Syn) (Synergy (Syn) was defined as an FICI≤0.5)”; in the assay with MRSA ATCC43300 (MIC, +8 mg/L DHA), “(Syn) (Synergy (Syn) was defined as an FICI≤0.5)”. The “biofilm removing activity (in words)” value was “superior biofilm removing activity in comparison with daptomycin and vancomycin” in [1]; “superior biofilm removing activity in comparison with daptomycin and vancomycin” in the assay on biofilms of MRSA USA300 (24 hours, FIG. 2). Moreover, the “increase of the biofilm removing activity of SC5005” value with biofilms of MRSA USA300 (DHA concentration 80 mg/L, strain not given) worked out at 32 times. The “time to eradication of persister cells” value in assay [3] and in assay [4] was ≤ 24 h in each case. For the same molecule, the “bacteria killed within 24 hours” value in assay [5] is on record as “more than 99.9%”.

By MBC is commonly meant the smallest concentration meeting the test's criterion for killing. The MIC is the smallest concentration in the dilution series that meets the test's criterion for growth inhibition.
